Results on one molecule are retold here after patent publication US20040116369A1, “Interferon regulatory factor-1/human estrogen receptor fusion protein and its use for treating carcinomas” (priority 2001, published 2004).

Test [1] deals with NIH3T3TA/IH/MR cells. The test can be described thus: IFN secretion by antiviral assay. Format: cell-based, murine. To be noted: +E2 1 μM, five days, normalized to 10^6 cells. The procedure: (§1) IFN-Test. The interferon concentrations in the cell culture supernatants were determined by an antiviral assay imploying mouse L929 cells (43). To confirm the specificity of the antiviral activity a neutralizing monoclonal antibody directed against mouse IFN-β was added to the supernatant before addition to the test cells.
IFN secretion as determined by an antiviral assay was taken as a measure of IRF-1 activity.

Another test has as its system HepaIRF-1hER tumors. Nature of the test: Subcutaneous tumor growth in syngeneic C57L/J mice. Format: in vivo. The text has this:
(§2) Tumor model. The Hepa1-6 tumor model in C57L/J mice (44) was chosen because they show reliable growth in the syngeneic host. Hepa1-6 cells are a derivative of the BW7756 mouse hepatoma that arose in a C57L mouse. MHC class I and II expression is identical between C57L and C57L/J mice and Hepa1-6 HCCs are characterized by AFP expression. […] After 6 days, tumors were visible and reached a size of about 2000 mm^3 after a mean time of 18 days. This tumor size was used as endpoint in the invention, and mice were subsequently sacrificed. Tumor incidence and volume were assessed every two days using calipers. Data are presented as mean volume±SE.
(§3) Tumor protection studies. C57L/J mice were inoculated with 1×10^7 Hepa1-6 (groups 1 and 2) or HepaIRF-1hER (groups 3 and 4) cells into the right flank. Group 5 was not inoculated with any tumor. The different groups were treated as follows:
(§4) The efficacy of IRF-1 activation as a therapeutic vaccine against tumors was examined. Mice were injected subcutaneosly with HepaIRF-1hER cells in the right flank and wt Hepa1-6 cells into the left flank. The animals were either treated with 1.5 mg E2 every two days or were left untreated. Activation of IRF-1-hER abolished tumor growth of HepaIRF-1hER cells on the right flank of the mice.

The subject of a further test is Hepa1-6 (wt) tumors. Nature of the test: Subcutaneous tumor growth in syngeneic C57L/J mice. The format is in vivo. The following applies: 1.5 mg E2 every two days i.p.
Text: as §2, §3, §4

Test [2] relates to Hepa1-6 cell clones expressing IRF-1hER (c4, c9, c22). The test can be described thus: Cell growth (WST metabolic activity). To be noted: Mus musculus, Hepa1-6, 168 h, 7 days after IRF-1 activation, 1 μM β-estradiol, read-out: extent of proliferation inhibition. Format: cell-based, murine. The protocol: (§5) Measurement of cell growth. For determination of cell growth 2×10^3 cells/well were seeded into microtiter plates and serial dilutions (1:1) were performed allowing several independent measurement points. Cells were treated with the indicated concentration of β-estradiol. Cell growth was determined using the WST kit (Roche Diagnostics, Mannheim, Germany) following the manufacturer's instruction. Mean values of triplicates resulting in less than 10% deviation were plotted.

Another test relates to NIH3T3TA/MR/IH cells. The test can be described thus: Tumor growth of transformed cells in nude mice. Format: in vivo, NMRI nude mice. To be noted: 1.5 mg E2 every two days i.p.; 10^6 cells s.c. The procedure:
Male 6-8-week old NMRI nude mice (Harlan Winkelmann, Borchen, Germany) were maintained in the SPF unit of the animal facility of German Research Center for Biotechnology. Mice were divided into two experimental groups, five mice for each group. 1×10^6 cells in 0.2 ml PBS NIH3T3TA/MR/IH cells were injected subcutaneously into the flanks of the mice. The groups were treated as follows: group 1: no treatment (n=5); group 2: 1.5 mg of E2 every two days i.p. (n=4). Tumor volumes were measured and recorded three times a week using calipers. Data are presented as mean value of tumor volume.

Test [3] deals with NIH3T3TA/IH/MR cells. The test can be described thus: Anchorage independent growth in soft agar. The format is cell-based, murine. To be noted: +E2 1 μM, two weeks after treatment. The protocol: Assay for anchorage independent growth. Anchorage-independent growth capability was determined by assessing the colony-formation efficiency of cells suspended in soft agar. 1×10^3 cells were seeded in 50 μl of 0.3% overlay agar in microtiter plates coated with 50 μl 0.6% underlay agar. The induction medium was added to the top (50 μl/well). […] To determine wether IRF-1 reverses the transformed phenotype of the cells to the formation of colonies in soft agar was assayed. […] In contrast, in the absence of Doxycycline (transformed status) the cells grew well and formed soft agar clones. The ability of soft agar growth was completely abolished by the activation of IRF-1 by E2 gift (Table 3).

The test system of test [4] is NIH3T3TA/IH/MR cells. Nature of the test: Proliferation (metabolic activity, WST). Format: cell-based, murine. To be noted: +E2 1 μM, seven days after treatment. The protocol:
as §5
The effects of IRF-1 in oncogenically transformed NIH3T3 cells were examined. NIH3T3 cells conditionally expressing the oncogenes c-myc and c-Ha-ras were used. Both oncogenes were bicistrinically expressed under the control of the tetracycline regulatable promoter (Kröger, Dissertation, Universität Braunschweig, 1999). The cells were stably transfected with the IRF-1-hER fusion protein encoding construct. This cell line allows the investigation of IRF-1 effects in the non-transformed NIH3T3 cells (presence of Doxycycline) and in the transformed state of the cells (absense of Doxycycline). The antitumoral activity of IRF-1 in vitro was investigated: Influence on proliferation, soft agar growth and IFN induction with and without IRF-1hER activation by E2 treatment were measured. This was done in the non-transformed as well as in the transformed state. E2 and Doxycyline were added for five days.

The next test concerns HepaIRF-1hER cell clones. Nature of the test: IFN secretion measured by antiviral assay in culture supernatant. The format is cell-based, murine. The following applies: +E2 1 μM, five days, normalized to 10^6 cells. The protocol:
For activation of IRF-1 in the IRF-1-hER fusion protein, E2 (SERVA, Frankfurt, Germany) was added to the cell culture medium to reach a final concentration of 1 μM.
as §1

As to `C[C@]12CC[C@@H]3c4ccc(O)cc4CC[C@H]3[C@@H]1CC[C@@H]2O` [E2, β-estradiol], the IFN secretion in the test on NIH3T3TA/IH/MR cells [1] (+DOX 2 μg/ml) is on record as 750 IU/ml; with NIH3T3TA/IH/MR cells [1] (−Dox), 750 IU/ml; in the test with HepaIRF-1hER cell clones (clone c4), 125 IU/ml; with HepaIRF-1hER cell clones (clone c9) it was 125 IU/ml; with HepaIRF-1hER cell clones (clone c22) it was 180 IU/ml. Also, the “Tumor volume (mean ± SD)” value with HepaIRF-1hER tumors (HepaIH 5 × 10^6 cells s.c., 1.5 mg E2 every two days i.p.) is on record as 22,4 ± 179 mm^3; in the test on Hepa1-6 (wt) tumors (Hepa1-6 (wt) 5 × 10^6 cells s.c.), 1630 ± 596 mm^3; with Hepa1-6 (wt) tumors (Hepa1-6 tumor on left flank of mice also carrying HepaIH on right flank), 179 ± 288 mm^3. The “mice protected against challenge” value with HepaIRF-1hER tumors (HepaIRF-1hER tumor, E2 treatment) is reported as 75%. The “tumor size after 40 days” value in the test with HepaIRF-1hER tumors (the two E2 treated animals that developed tumors) is 450 mm^3. Besides, the inhibition at 1 µM in test [2] lay in the range of 40 to 80%. In addition, the “mice that developed no tumors” value in the test with NIH3T3TA/MR/IH cells came to 40%. Moreover, the “Soft agar growth (number of clones)” value with NIH3T3TA/IH/MR cells [3] (+DOX 2 μg/ml (non-transformed)) and with NIH3T3TA/IH/MR cells [3] (−Dox (transformed)) was 0 each time. For the same molecule, the Proliferation with NIH3T3TA/IH/MR cells [4] (+DOX 2 μg/ml (non-transformed)) stood at 60%; with NIH3T3TA/IH/MR cells [4] (−Dox (transformed)), 65%.
